From US20190225557A1, “IMPROVED UREA-BASED C[…] SULPHUR AND METHOD FOR THE MANUFACTURE THEREOF” (YARA INT[…], priority 2016, published 2019)

Columns and labels:
[1] = format: physicochemical; details: urea + 10.5% ES + 500 ppm nBTPT as Amiplus liquid (Exp. H-M); open pots in nissenhut; measured after 28 days (ranking given as after 14 days)
Description: (§1) 1.2 kg of solid fertilizer material was added to a lab scale drum. In a next step, the nBTPT material was slowly added and subsequently followed, if applied, by an alkaline or alkaline-forming inorganic or organic compound. A residence time of 10 minutes was applied and the rotating speed of the drum was consequently the same in each experiment. In case a moisture-repellent coating was added, a nebulizer was used and, depending on the order of addition, the moisture-repellent coating was added before or after addition of the nBTPT material. Before use, the moisture-repellent coating was preheated to 80° C.
Typically, a day/night cycle is generated in the nissenhut, with temperature fluctuations between 0 to 42° C. and fluctuations of relative humidity between 20 and 90%, which can be compared with real life storage in silos.
The samples were stored 28 days in open pots in nissenhut.
The samples were stored for 28 days in open pots in nissenhut.

[2] = Accelerated storage stability of nBTPT on fertilizer granules (HPLC analysis of nBTPT content); format: physicochemical; details: nBTPT formulations (500 ppm powder or Agrotain Ultra) applied onto urea comprising 9% elemental sulphur (samples B, C); 12 days at 70° C. in closed plastic container
Description: as §1
For some samples, an accelerated stability test was done after storing these samples at elevated temperatures: • Oven of 30° C., open to air • 70° C. in a closed plastic container
HPLC analysis of nBTPT is done as described in the procedure CEN 15688-2007.
This set of samples was stored at room temperature (20-25° C.) in bags and at elevated temperature (30° C. and 70° C., accelerated stability test).

**Q.** Which “effectivity of the stabilizers (ranking) on stability of nBTPT” value (“effectivity of the stabilizers (ranking)” for short) [1] does the source give for `O=C([O-])[O-].[Ca+2]` [CaCO3, calcium carbonate] here?
**A.** CaCO3═MgO>CaO>ZnO>Et3N>no stabilizer

**Q.** Which “effectivity of the stabilizers (ranking)” value [1] does the source give for `[O]=[Mg]` [MgO, magnesium oxide] here?
**A.** CaCO3═MgO>CaO>ZnO>Et3N>no stabilizer

**Q.** With `CCCCNP(N)(N)=S` [nBTPT, N-(n-butyl) thiophosphoric triamide] as the molecule, how does the “nBTPT level after storage” value [2] read?
**A.** 0 weight %

**Q.** For `[O]=[Ca]` [CaO, calcium oxide], which “effectivity of the stabilizers (ranking)” value [1] is on record?
**A.** CaCO3═MgO>CaO>ZnO>Et3N>no stabilizer

**Q.** For `[O]=[Zn]` [ZnO, zinc oxide], which “effectivity of the stabilizers (ranking)” value [1] is on record?
**A.** CaCO3═MgO>CaO>ZnO>Et3N>no stabilizer
